Measurements: patent publication US12514859B2, “Pyrazole pyrimidine derivative and uses thereof” (Yissum Research Development Company of the Hebrew …, priority 2015, dated 2026)

Assays:
[1] = test system: p53, DNA damage response (γH2AX); assay: p53 and DNA damage response activation in RKO cells (Western blot, primary screen and dose response); format: cell-based; settings: for DDR & p53 activity: 16 hours, Western blot, average value
Experimental: (§1) Primary Screen in RKO cells for compounds having typical CKIα inhibitory activity (β-catenin and p53 stabilization and histone H2AX phosphorylation; see Elyada et al, Nature 2011 Feb. 17; 470(7334):409-13; Pribluda et al, Cancer Cell 2013 Aug. 12; 24(2):242-56). RKO colorectal cells were incubated with 10 μM of each of the compounds for 16 hours at 37° C. Cells were washed with PBS and cell pellets were incubated with ice cold protein lysis buffer containing protease inhibitor cocktail (1/200; Calbiochem) and phosphatase inhibitors (20 mM p-nitrophenyl phosphate (PNPP), 20 mM β-glycerophosphate and 300 nM okadaic acid). Western blot analysis was performed by means of standard techniques. Blots were incubated with antibodies detecting β-catenin (1/2,500; BD Transduction), p53 (DO-1&1801 hybridoma mix; dilution of 1:20 of supernatants from each), CKIα (C-19; 1/1,000; Santa Cruz Biotechnology) and phospho-histoneH2AX (S139; 1/1,000; Millipore). Secondary antibodies were HRP-linked goat anti-mouse, goat anti-rabbit and rabbit anti-goat antibodies (all 1/10,000; Jackson). Blots were developed using ECL (GE Healthcare).
(§2) Active compounds were further analyzed in a dose-response experiment (FIGS. 1A and 1B). Similar to the primary screen, RKO cells were incubated with descending concentrations of each of the active compounds for 16 hours at 37° C. Cell extract isolation and Western Blot analysis were similar to the primary screen.
(§3) Table 1 provides quantified information for compounds of the invention in activation of p53 and DNA damage response (DDR) and β-catenin stabilization as an indicator of Wnt pathway activation. p53 activation was determined according to the degree of protein stabilization in several Western blot assays (Western blot examples are shown in FIGS. 1A and 1B). […] In contrast, A35 started stabilizing p53 at […], with maximal stabilization at […] (FIG. 1A, upper right panel) and thus received an average value of +++ for p53 activation.

[2] = test system: Wnt/β-catenin; assay: β-catenin stabilization (Wnt pathway activation) in RKO cells (Western blot); format: cell-based; parameters: concentration at which β-catenin was stabilized: unit not given here; settings: for β-Catenin activity: 16 hours, Western blot
Experimental: as §1, §2, §3

Structure (SMILES): Cn1ncc(-c2ccnc(NC3CCC4(CC3)NC(=O)NC4=O)n2)c1CC1CC1 (stereo not drawn) [Compound A19-4, 8-((4-(5-(cyclopropylmethyl)-1-methyl-1H-pyrazol-4-yl)pyrimidin-2-yl)amino)-1,3-diazaspiro[4.5]decane-2,4-dione]
- p53 stabilization and γH2AX induction (in words) ([1]; FIG. 1A): neither stabilized p53, nor induced γH2AX
- β-Catenin activity [2]: +++ (+++ indicates maximal β-catenin or p53 stabilization at >2 μM)
- concentration at which β-catenin was stabilized ([2]; FIG. 1A): 2

Structure (SMILES): Cn1ncc(-c2ccnc(NC3CCC4(CC3)COC(=O)N4)n2)c1CC1CC1 (stereo not drawn) [Compound A26, 8-((4-(5-(cyclopropylmethyl)-1-methyl-1H-pyrazol-4-yl)pyrimidin-2-yl)amino)-3-oxa-1-azaspiro[4.5]decan-2-one]
- DDR & p53 activity [1]: + (+ indicates low, yet significant activation at a compound concentration of 6 μM)
- β-Catenin activity [2]: + (+ indicates low, yet significant activation at a compound concentration of 6 μM)

Structure (SMILES): N[C@H]1CC[C@H](Nc2nccc(-c3cnn(C4CCCOC4)c3CC3CC3)n2)CC1 (stereo partly drawn) [Compound A38, (1R, 4R)—N^1-(4-(5-(cyclopropylmethyl)-1-(tetrahydro-2H-pyran-3-yl)-1H-pyrazol-4-yl)pyrimidin-2-yl)cyclohexane-1,4-diamine]
- DDR & p53 activity [1]: + (+ indicates low, yet significant activation at a compound concentration of 6 μM)
- β-Catenin activity [2]: + (+ indicates low, yet significant activation at a compound concentration of 6 μM)

Structure (SMILES): Cn1ncc(-c2ccnc(N[C@H]3CC[C@H](N4CCOCC4)CC3)n2)c1CC1CC1 [Compound A48, 4-(5-(cyclopropylmethyl)-1-methyl-1H-pyrazol-4-yl)-N-((1r, 4r)-4-morpholinocyclohexyl)pyrimidin-2-amine]
- DDR & p53 activity [1]: + (+ indicates low, yet significant activation at a compound concentration of 6 μM)
- β-Catenin activity [2]: + (+ indicates low, yet significant activation at a compound concentration of 6 μM)

Structure (SMILES): CC(C)n1ncc(-c2ccnc(N[C@H]3CC[C@H](N)CC3)n2)c1CC1CCC1 [Compound A53, (1R,4R)—N^1-(4-(5-(cyclobutylmethyl)-1-isopropyl-1H-pyrazol-4-yl)pyrimidin-2-yl)cyclohexane-1,4-diamine]
- DDR & p53 activity [1]: + (+ indicates low, yet significant activation at a compound concentration of 6 μM)
- β-Catenin activity [2]: + (+ indicates low, yet significant activation at a compound concentration of 6 μM)

Structure (SMILES): Cn1ncc(-c2nc(N[C@H]3CC[C@H](Nc4ccccc4)CC3)ncc2Cl)c1CC1CC1 [Compound A68, (1R,4R)—N^1-(5-chloro-4-(5-(cyclopropylmethyl)-1-methyl-1H-pyrazol-4-yl)pyrimidin-2-yl)-N^4-phenylcyclohexane-1,4-diamine]
- DDR & p53 activity [1]: + (+ indicates low, yet significant activation at a compound concentration of 6 μM)
- β-Catenin activity [2]: + (+ indicates low, yet significant activation at a compound concentration of 6 μM)

Structure (SMILES): Cn1ncc(-c2nc(NC3CCC(NCc4cn[nH]c4)CC3)ncc2Cl)c1CC1CC1 [Compound A75, (1R,4R)—N^1-((1H-pyrazol-4-yl)methyl)-N^4-(5-chloro-4-(5-(cyclopropylmethyl)-1-methyl-1H-pyrazol-4-yl)pyrimidin-2-yl)cyclohexane-1,4-diamine]
- DDR & p53 activity [1]: +++++ (+++++ indicates maximal activation of p53 and DDR at >0.1 μM)
- β-Catenin activity [2]: +++ (+++ indicates maximal β-catenin or p53 stabilization at >2 μM)

Structure (SMILES): Cn1ncc(-c2nc(NC3CCC(NCc4cn[nH]c4)CC3)ncc2F)c1CC1CC1 [Compound A85, (1R,4R)—N^1-((1H-pyrazol-4-yl)methyl)-N^4-(4-(5-(cyclopropylmethyl)-1-methyl-1H-pyrazol-4-yl)-5-fluoropyrimidin-2-yl)cyclohexane-1,4-diamine]
- DDR & p53 activity [1]: +++ (+++ indicates maximal β-catenin or p53 stabilization at >2 μM)
- β-Catenin activity [2]: +++ (+++ indicates maximal β-catenin or p53 stabilization at >2 μM)

Structure (SMILES): Cn1ncc(-c2nc(NC3CCC(N)CC3)ncc2F)c1CC1CC1 [Compound A86, (1R,4R)—N^1-(4-(5-(cyclopropylmethyl)-1-methyl-1H-pyrazol-4-yl)-5-fluoropyrimidin-2-yl)cyclohexane-1,4-diamine]
- DDR & p53 activity [1]: +++++ (+++++ indicates maximal activation of p53 and DDR at >0.1 μM)
- β-Catenin activity [2]: +++ (+++ indicates maximal β-catenin or p53 stabilization at >2 μM)

Structure (SMILES): Cn1ncc(-c2nc(N[C@H]3CC[C@H](NC(=O)c4cn[nH]c4)CC3)ncc2Cl)c1CC1CC1 [Compound A87, N-((1R,4R)-4-((5-chloro-4-(5-(cyclopropylmethyl)-1-methyl-1H-pyrazol-4-yl)pyrimidin-2-yl)amino)cyclohexyl)-1H-pyrazole-4-carboxamide]
- DDR & p53 activity [1]: + (+ indicates low, yet significant activation at a compound concentration of 6 μM)
- β-Catenin activity [2]: +++ (+++ indicates maximal β-catenin or p53 stabilization at >2 μM)
